Test results reported in patent publication US4719200A, “Amino acid derivatives and antihypertensive drugs containing the same” (Ajinomoto Co., Inc., priority 1984, dated 1988).
Peptide text beside a SMILES is read from it. * marks the point of attachment. Boc = CC(C)(C)OC(=O)*; Propionyl = CCC(=O)*; Bz = O=C(c1ccccc1)*

System: spontaneously hypertensive rates (SHR rats)
Test: Measurement of change in blood pressure (systolic, indirect, conscious rats) after one oral dose
Assay type: in vivo, rat
Details: for Δ Blood Pressure (systolic): lowest value minus value before administration; for Systolic Blood Pressure, Lowest Value: after administration
Description: The antihypertensive activities of the amino acid derivatives as prepared above were determined.
As subject animals, there were used 5 spontaneously hypertensive rates (SHR rats) which had been sufficiently trained and confirmed to be hypertensive (mode, the body weight of 400 g) per a sample.
As an instrument for measuring the blood pressure there was used Programmed Electro-Sphygmomanometer PE-300 (Narco Co., U.S.A.), and the blood pressure was indirectly measured on conscious rats.
An aqueous solution of a sample (0.05 m mole/kg) was once force-fed into the stomach by means of a […] probe. As a control, the water as deionized was fed to the same animals as above.

[1] = SHR rats, single force-feeding into the stomach, 0.05 m mole/kg
[2] = SHR rats, 5 per sample, before single force-feeding into the stomach of 0.05 m mole/kg aqueous solution
[3] = second table (Examples 25-43), before administration

Compound | Systolic Blood Pressure, Lowest value after administration [1] [mm Hg] | Δ Blood Pressure (systolic) [1] [mm Hg] | Systolic Blood Pressure, Value Before Administration [2] [mm Hg] | Hours after administration (of lowest systolic blood pressure value) [1] [h] | Hrs. After Admin. (of lowest systolic blood pressure value) (second table (Examples 25-43)) [h] | Systolic Blood Pressure, Lowest Value (second table (Examples 25-43)) | Systolic Blood Pressure, Value Before Administration [3] | Δ Blood Pressure (systolic) (second table (Examples 25-43))
CCOC(=O)N[C@@H](C)C(=O)N1CCC[C@H]1C(=O)N1CCC[C@H]1C(=O)O [Example 1, N-ethoxycarbonyl-L-alanyl-L-prolyl-L-proline] | 155 | -38 |  |  |  |  |  | 
N-(benzylthio) thiocarbonyl-L-alanyl-L-prolyl-L-proline L-arginine salt [Example 9] | 191 | -25 | 216 | 24 |  |  |  | 
C[C@H](NC(=O)c1ccccc1)C(=O)N1CCC[C@H]1C(=O)N1CCC[C@H]1C(=O)O [Example 13, N-benzoyl-L-alanyl-L-prolyl-L-proline] (Bz-Ala-Pro-Pro-OH) | 177 | -43 |  |  |  |  |  | 
N-phenylthiocarbamoyl-L-alanyl-L-prolyl-L-proline L-arginine salt [Example 18] | 211 | -13 | 224 | 24 |  |  |  | 
N-(3-phenylpropionyl)-L-alanyl-L-prolyl-L-proline L-arginine salt [Example 2] | 154 | -36 | 190 | 24 |  |  |  | 
CCOC(=O)N[C@@H](CCCNC(=N)N)C(=O)N1CCC[C@H]1C(=O)N1CCC[C@H]1C(=O)O [Example 34, N--ethoxycarbonyl-L-arginyl-L-prolyl-L-proline] |  |  |  |  | 4 | 192 | 203 | -11
CCS(=O)(=O)N[C@@H](CCC(=O)O)C(=O)N1CCC[C@H]1C(=O)N1CCC[C@H]1C(=O)O [Example 40, N--ethane sulfonyl-L-glutamyl-L-prolyl-L proline] |  |  |  |  | 8 | 202 | 220 | -18
CC[C@H](C)[C@H](NS(=O)(=O)CC)C(=O)N1CCC[C@H]1C(=O)N1CCC[C@H]1C(=O)O.[Na] [Example 37, N--ethanesulphonyl-L-isoleucyl-L-prolyl-proline sodium salt] |  |  |  |  | 8 | 194 | 218 | -22
CCOC(=O)N[C@H](C(=O)N1CCC[C@H]1C(=O)N1CCC[C@H]1C(=O)O)[C@@H](C)CC.[Na] [Example 30, N--ethoxycarbonyl-L-isoleucyl-L-prolyl-L-proline sodium salt] |  |  |  |  | 4 | 208 | 224 | -16
O=C(N[C@@H](Cc1ccccc1)C(=O)N1CCC[C@H]1C(=O)N1CCC[C@H]1C(=O)O)c1ccccc1.[Na] [Example 26, N--Benzoyl-L-phenylalanyl-L-prolyl-L-proline sodium salt] (Bz-Phe-Pro-Pro-OH) |  |  |  |  | 8 | 194 | 228 | -34
CC(=O)N[C@@H](C)C(=O)N1CCC[C@H]1C(=O)N1CCC[C@H]1C(=O)O [Example 3, N-acetyl-L-alanyl-L-prolyl-L-proline] (Ac-Ala-Pro-Pro-OH) | 160 | -41 |  |  |  |  |  | 
CC[C@H](C)[C@H](NC(=O)c1ccccc1)C(=O)N1CCC[C@H]1C(=O)N1CCC[C@H]1C(=O)O [Example 25, N--benzoyl-L-isoleucyl-L-prolyl-L-proline] (Bz-Ile-Pro-Pro-OH) |  |  |  |  | 8 | 201 | 229 | -28
C[C@H](NC(=O)OC(C)(C)C)C(=O)N1CCC[C@H]1C(=O)N1CCC[C@H]1C(=O)O [Example 16, N-t-butyloxycarbonyl-L-alanyl-L-prolyl-L-proline] (Boc-Ala-Pro-Pro-OH) | 173 | -21 |  |  |  |  |  | 
C[C@H](NC(=O)c1cccs1)C(=O)N1CCC[C@H]1C(=O)N1CCC[C@H]1C(=O)O [Example 6, N-(2-thenoyl)-L-alanyl-L-prolyl-L-proline] | 182 | -20 |  |  |  |  |  | 
CCS(=O)(=O)N[C@@H](C)C(=O)N1CCC[C@H]1C(=O)N1CCC[C@H]1C(=O)O [Example 12, N-ethanesulfonyl-L-alanyl-L prolyl-L-proline] | 159 | -45 | 204 | 24 |  |  |  | 
CCC(=O)N[C@@H](C)C(=O)N1CCC[C@H]1C(=O)N1CCC[C@H]1C(=O)O [Example 4, N-propionyl-L-alanyl-L-prolyl-L-proline] (Propionyl-Ala-Pro-Pro-OH) | 173 | -24 |  |  |  |  |  | 
CCS(=O)(=O)N[C@@H](CCCNC(=N)N)C(=O)N1CCC[C@H]1C(=O)N1CCC[C@H]1C(=O)O [Example 41, N--ethane sulfonyl-L-arginyl-L-prolyl-L-proline] |  |  |  |  | 7 | 185 | 204 | -19
C[C@H](NC(=O)c1ccco1)C(=O)N1CCC[C@H]1C(=O)N1CCC[C@H]1C(=O)O [Example 7, N-(2-furoyl)-L-alanyl-L-prolyl-L-proline] | 177 | -28 |  |  |  |  |  | 
CCS(=O)(=O)N[C@@H](CO)C(=O)N1CCC[C@H]1C(=O)N1CCC[C@H]1C(=O)[O-].[Na+] [Example 42, N--ethane sulfonyl-L-seryl-L-prolyl-L-proline sodium salt] |  |  |  |  | 24 | 200 | 220 | -20
O=C(NCC(=O)N1CCC[C@H]1C(=O)N1CCC[C@H]1C(=O)O)c1ccccc1 [Example 27, N--benzoyl-glycyl-L-prolyl-L-proline] (Bz-Gly-Pro-Pro-OH) |  |  |  |  | 8 | 209 | 232 | -23
O=C(O)CC[C@H](NC(=O)c1ccccc1)C(=O)N1CCC[C@H]1C(=O)N1CCC[C@H]1C(=O)O [Example 28, N--benzoyl-L-glutamyl-L-prolyl-L-proline] (Bz-Glu-Pro-Pro-OH) |  |  |  |  | 8 | 196 | 235 | -39
C[C@@H](C(=O)N1CCC[C@H]1C(=O)N1CCC[C@H]1C(=O)O)N1C(=O)c2ccccc2C1=O [Example 8, N-phthaloyl-L-alanyl-L prolyl-L-proline] | 207 | -18 | 225 | 4 |  |  |  | 
CCS(=O)(=O)N[C@@H](Cc1ccccc1)C(=O)N1CCC[C@H]1C(=O)N1CCC[C@H]1C(=O)O [Example 38, N--ethanesulfonyl-L-phenylalanyl-L-prolyl-L-proline] |  |  |  |  | 8 | 201 | 235 | -34
CCOC(=O)N[C@@H](CCC(=O)O)C(=O)N1CCC[C@H]1C(=O)O [Example 33, N--ethoxycarbonyl-L-glutamyl-L-proline] |  |  |  |  | 8 | 202 | 220 | -18
O=C(O)[C@@H]1CCCN1C(=O)[C@@H]1CCCN1C(=O)[C@H](CO)NCc1ccccc1 [Example 29, N--benzyl-L-seryl-L-prolyl-L-proline] |  |  |  |  | 8 | 192 | 214 | -22
CCOC(=O)N[C@@H](CCSC)C(=O)N1CCC[C@H]1C(=O)N1CCC[C@H]1C(=O)[O-].[Na+] [Example 36, N--Ethoxycarbonyl-L-methionyl-L-prolyl-L proline sodium salt] |  |  |  |  | 8 | 206 | 223 | -17
CCS(=O)(=O)N[C@@H](CCSC)C(=O)N1CCC[C@H]1C(=O)N1CCC[C@H]1C(=O)O [Example 43, N--ethane sulfonyl-L-methionyl-L-prolyl-L-proline] |  |  |  |  | 8 | 198 | 229 | -31
